Experimental data published in ChEMBL document CHEMBL1143666 (J Med Chem, 2007).
pIC50: −log10 of the molar value.

Tests used:
Heat shock protein HSP90 [1] = biological target: T1, Heat shock protein HSP90 (Homo sapiens, UniProt P07900+P08238); conditions: mcf7
Description: Binding affinity to human recombinant HSP90 in MCF7 cell lysates assessed as inhibition of biotinylated-geldanamycin binding

MCF7 = experiment: Antiproliferative activity against human MCF7 cells by MTS assay; assay type: functional, cell-based
Heat shock protein HSP90 [2] = biological target: T1, Heat shock protein HSP90
Description: Binding affinity to human recombinant HSP90 assessed as inhibition of biotinylated-geldanamycin binding

BT-474 = experiment: Antiproliferative activity against human BT474 cells by MTS assay; assay type: functional, cell-based
Heat shock protein HSP90 [3] = biological target: T1, Heat shock protein HSP90; conditions: mcf7; remark: listed apart in the source
Description: Inhibition of human recombinant HSP90 in MCF7 cells assessed as Her2 degradation

RPTEC [4] = experiment: Antiproliferative activity against human RPTEC; assay type: cell-based
RPTEC [5] = experiment: Selectivity index, ratio of IC50 for human RPTEC cells to IC50 for MCF7 cells; assay type: functional, cell-based
HT-29 = experiment: Antiproliferative activity against human HT29 cells; assay type: functional, cell-based
RPTEC [6] = experiment: Selectivity index, ratio of IC50 for human RPTEC cells to IC50 for HT29 cells; assay type: functional, cell-based
Heat shock protein HSP90 [7] = biological target: T1, Heat shock protein HSP90; conditions: ndf
Description: Binding affinity to HSP90 in human NDF cell lysates assessed as inhibition of biotinylated-geldanamycin binding

Heat shock protein HSP90 [8] = biological target: T1, Heat shock protein HSP90; conditions: mcf7; remark: listed apart in the source
Description: Selectivity for HSP90 in MCF7 cells over HSP90 in NDF cells

[9] = AUC in BALB/c mouse at 100 mg/kg, po; assay type: ADME, organism-based; parameters: dose 100 mg/kg, route oral; conditions: plasma
[10] = Solubility in mouse serum at pH 7.4; assay type: ADME, cell-free
[11] = Half life in BALB/c mouse at 100 mg/kg, po; assay type: ADME, organism-based; parameters: dose 100 mg/kg, route oral; conditions: in vivo
[12] = Solubility in simulated intestinal fluid at pH 6.5; assay type: physicochemical
NCI-N87 [13] = experiment: Antitumor activity in human N87 cells xenografted mouse assessed as tumor growth inhibition at 60 mg/kg, po administered weekly 5-day-on and 2-day-off schedule for 5 weeks; assay type: functional; conditions: read-out: TGI
[14] = Solubility in simulated gastric fluid at pH 2.0; assay type: physicochemical
Liver microsomes = experiment: Metabolic stability in human liver microsomes; assay type: ADME, Microsome
[15] = Cmax in BALB/c mouse at 100 mg/kg, po; assay type: ADME, organism-based; parameters: dose 100 mg/kg, route oral; conditions: in vivo
[16] = Tmax in BALB/c mouse at 100 mg/kg, po; assay type: ADME, organism-based; parameters: dose 100 mg/kg, route oral; conditions: in vivo
NCI-N87 [17] = experiment: Antitumor activity in human N87 cells xenografted mouse assessed as tumor growth inhibition at 125 mg/kg, po administered weekly 5-day-on and 2-day-off schedule for 5 weeks; assay type: functional; conditions: read-out: TGI
[18] = Aqueous solubility of the compound; assay type: physicochemical; conditions: aqueous medium
NCI-N87 [19] = experiment: Antitumor activity in human N87 cells xenografted mouse assessed as tumor growth inhibition at 90 mg/kg, ip administered weekly 5-day-on and 2-day-off schedule for 5 weeks; assay type: functional; conditions: route intraperitoneal, read-out: TGI

| SMILES | IC50 (Heat shock protein HSP90 [1]) | pIC50 (MCF7) | pIC50 (BT-474) | IC50 (Heat shock protein HSP90 [3]) | also measured |
| --- | --- | --- | --- | --- | --- |
| COc1c(C)c[n+]([O-])c(Cn2cnc3c(Cl)nc(N)nc32)c1C | 30 nM | 7.00 | 6.82 | 80 nM | IC50 (Heat shock protein HSP90 [2]): 800 nM |
| COc1cc(Cn2cnc3c(OC)nc(N)nc32)c(Br)c(OC)c1OC |  |  |  | 45000 nM |  |
| COc1cc(Cn2cnc3c(O)nc(N)nc32)c(Cl)c(OC)c1OC |  |  |  | 700 nM |  |
| COc1cc(Cn2cnc3c(Cl)nc(N)nc32)cc(OC)c1OC |  |  |  | 2000 nM |  |
| Cc1cnc(Cn2cnc3c(Cl)nc(N)nc32)c(C)c1Cl | 10 nM | 7.00 | 6.52 | 35 nM | pIC50 (RPTEC [4]): 5.30; selectivity index (RPTEC [5]): 50; pIC50 (HT-29): 6.30; selectivity index (RPTEC [6]): 10 |
| CCOc1c(C)cnc(Cn2cnc3c(Cl)nc(N)nc32)c1C |  |  |  | 1500 nM |  |
| Cc1cnc(Cn2cnc3c(Cl)nc(N)nc32)c(C)c1I | 3 nM | 7.52 | 7.52 | 9 nM | pIC50 (RPTEC [4]): 6.82; IC50 (Heat shock protein HSP90 [7]): 1000 nM; selectivity index (RPTEC [5]): 5; pIC50 (HT-29): 7.64; IC50 (Heat shock protein HSP90 [8]): 333000 nM; selectivity index (RPTEC [6]): 7 |
| COc1ccc(OC)c(Cn2cnc3c(Cl)nc(N)nc32)c1 |  |  |  | 3000 nM |  |
| COc1cc(Cn2cnc3c(C)nc(N)nc32)c(Cl)c(OC)c1OC |  |  |  | 1800 nM |  |
| COc1cc(Cn2cnc3c(Br)nc(N)nc32)c(Br)c(OC)c1OC |  |  |  | 55 nM |  |
| COc1cc(Cn2cnc3cnc(N)nc32)c(Br)c(OC)c1OC |  |  |  | 50000 nM |  |
| Cc1cnc(Cn2cnc3c(Cl)nc(N)nc32)c(C)c1OC(C)C |  |  |  | 1500 nM |  |
| Cc1cnc(Cn2cnc3c(Cl)nc(N)nc32)c(C)c1O |  |  |  | 100000 nM |  |
| Cc1cnc(Cn2cnc3c(Cl)nc(N)nc32)c(C)c1[N+](=O)[O-] |  |  |  | 1000 nM |  |
| COc1c(C)ncc(Cn2cnc3c(Cl)nc(N)nc32)c1C.Cl | 18 nM | 6.82 | 7.30 | 20 nM | AUC [9]: 9000 ng·h/mL; solubility [10]: 186 µg/mL; half-life [11]: 54 min; solubility [12]: 234 µg/mL; IC50 (Heat shock protein HSP90 [2]): 900 nM; inhibition in vivo at 60 mg/kg (NCI-N87 [13]): 83%; solubility [14]: 451 µg/mL; Stability (Liver microsomes): 83%; Cmax [15]: 28200 ng/mL; Tmax [16]: 6 min |
| Cc1cnc(Cn2cnc3c(Cl)nc(N)nc32)c(C)c1 | 4000 nM |  |  | 7500 nM |  |
| CSc1c(C)cnc(Cn2cnc3c(Cl)nc(N)nc32)c1C | 40 nM | 6.30 | 7.05 | 27 nM | pIC50 (RPTEC [4]): 5.64; selectivity index (RPTEC [5]): 5; pIC50 (HT-29): 6.70; selectivity index (RPTEC [6]): 12 |
| C#CCCCn1c(Cc2cc(OC)c(OC)c(OC)c2Cl)nc2c(N)nc(F)nc21 |  | 5.92 |  |  |  |
| Cc1cnc(Cn2cnc3c(Cl)nc(N)nc32)c(C)c1[S+](C)[O-] (stereo unspecified) | 10000 nM |  |  | > 10000 nM |  |
| COc1c(C)c(Cl)nc(Cn2cnc3c(Cl)nc(N)nc32)c1C | 25 nM | 6.30 | 6.30 | 90 nM |  |
| COc1cc(Cn2cnc3c(S)nc(N)nc32)c(Br)c(OC)c1OC |  |  |  | 100000 nM |  |
| COc1cc(Cn2cnc3c(N)nc(N)nc32)c(Br)c(OC)c1OC |  |  |  | 17000 nM |  |
| COc1c(C)cnc(Cn2cnc3c(Cl)nc(N)nc32)c1C.Cl |  | 7.00 | 7.00 |  | AUC [9]: 4800 ng·h/mL; inhibition in vivo at 125 mg/kg (NCI-N87 [17]): 87%; pIC50 (RPTEC [4]): 6.22; solubility [10]: 176 µg/mL; half-life [11]: 48 min; solubility [12]: 87 µg/mL; selectivity index (RPTEC [5]): 6; pIC50 (HT-29): 6.89; solubility [14]: 240 µg/mL; Stability (Liver microsomes): 86%; Cmax [15]: 10000 ng/mL; Tmax [16]: 6 min; selectivity index (RPTEC [6]): 5 |
| COc1cc(Cn2cnc3c(Cl)nc(N)nc32)c(Br)c(OC)c1OC |  |  |  | 70 nM |  |
| COc1cc(Cn2cnc3c(Cl)nc(N)nc32)c(I)c(OC)c1OC |  |  |  | 340 nM |  |
| Cc1cnc(Cn2cnc3c(Cl)nc(N)nc32)c(C)c1Br | 2 nM | 7.52 | 7.30 | 15 nM | pIC50 (RPTEC [4]): 5.89; IC50 (Heat shock protein HSP90 [7]): 800 nM; selectivity index (RPTEC [5]): 43; pIC50 (HT-29): 6.89; IC50 (Heat shock protein HSP90 [8]): 400000 nM; selectivity index (RPTEC [6]): 10 |
| Cc1cnc(Cn2cnc3c(Cl)nc(N)nc32)c(C)c1N |  |  |  | 5800 nM |  |
| COc1cc(Cn2cnc3c(Cl)nc(N)nc32)c(Cl)c(OC)c1OC |  |  |  | 50 nM | solubility [18]: < 1 µg/mL |
| C=CCNC1=C2C[C@@H](C)C[C@H](OC)[C@H](O)[C@@H](C)/C=C(\C)[C@H](OC(N)=O)[C@@H](OC)/C=C\C=C(/C)C(=O)NC(=CC1=O)C2=O [TANESPIMYCIN] |  | 8.00 | 8.00 |  | inhibition in vivo at 90 mg/kg (NCI-N87 [19]): 70%; pIC50 (RPTEC [4]): 7.00; pIC50 (HT-29): 8.70 |
| Cc1cnc(Cn2cnc3c(Cl)nc(N)nc32)c(C)c1C | 35 nM | 6.52 | 7.10 | 42 nM |  |
